Data as given in publication PMC11546340 (BMC Chemistry, 2024).
“And” between values parts separate entries of the source, which are not always exact repeats. Identical values can stand only once.

Legend:
[1] = Plasma protein binding, HT Dialysis 96-well apparatus, LC-MS/MS; type: in vitro ADME; conditions: male, human, plasma, pH 7.4, Recovery (%), mean, n = 4
human plasma = assay: as above; type: in vitro ADME; conditions: 3 µM

recovery at 5 h, 3 µM [1]: 94.2%
Bound (%) (human plasma; individual replicates 1-4): 99.01% and 99.07% and 98.91% and 98.99%
Recovery (%) (human plasma; individual replicates 1-4): 80.60% and 94.07% and 119.11% and 83.10%
Unbound (%) (human plasma; individual replicates 1-4): 0.99% and 0.93% and 1.09% and 1.01%
Unbound (%) (human plasma; mean, n = 4): 1.01%
SMILES: O=C(O)Cc1ccccc1Nc1c(Cl)cccc1Cl [Diclofenac]
